Assay results taken from patent US20240309003A1, “HETEROCYCLIC COMPOUNDS AS TRIGGERING RECEPTOR EXPRESSED ON MYELOID CELLS 2 AGONISTS AND METHODS OF USE” (Vigil Neuroscience, Inc., priority 2021, published 2024).

Biological target: T1, human TREM2 (Homo sapiens, UniProt Q9NZC2)
T1 construct: expressed in transfected cells; host or cells: HEK293T
Experiment: TREM2 agonist potency by cellular phosphorylation of Syk (AlphaLisa) in HEK293T-hTREM2 cells
Assay type: cell-based
How it was run: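 Agonist EC50 from a variable-slope four-parameter fit of % activation, based on AlphaLisa phospho-Syk levels in lysates. Cells: HEK293T-hTREM2 (with DAP12), treated 45 min at room temperature with compound in assay buffer.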

[1] = HEK293 cells expressing human TREM2 and DAP12, Table D
[2] = HEK293 cells expressing human TREM2 and DAP12, Table D-2

T1 sequence (Q9NZC2 19-230): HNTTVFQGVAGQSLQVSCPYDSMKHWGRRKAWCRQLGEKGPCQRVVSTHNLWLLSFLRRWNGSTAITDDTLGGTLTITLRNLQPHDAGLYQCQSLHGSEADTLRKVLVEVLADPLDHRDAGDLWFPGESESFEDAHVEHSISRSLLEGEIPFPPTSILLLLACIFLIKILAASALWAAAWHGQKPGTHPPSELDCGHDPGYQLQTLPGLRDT
T1 sequence (O43914 22-113 partner): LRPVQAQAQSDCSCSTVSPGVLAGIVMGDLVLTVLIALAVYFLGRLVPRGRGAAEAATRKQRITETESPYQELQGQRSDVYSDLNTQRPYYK

EC50 [1] [nM] | EC50 [2] [nM] | Compound
< 50 | – | Cc1nc2nc(N3CCOC(c4cc[nH]c(=O)c4)C3)nc(C34CC(C(F)(F)F)(C3)C4)c2nc1C (stereo not shown) [Example 197, 4-(4-(6,7-dimethyl-4-(3-(trifluoromethyl)bicyclo[1.1.1]pentan-1-yl)pteridin-2-yl)morpholin-2-yl)pyridin-2(1H)-one]
– | < 50 | Cc1nc2nc([C@H]3CCO[C@@H](c4cnn(C5CC5)c4)C3)nc(-c3ccc(F)cc3F)c2nc1C(F)F [Example I-1323, 2-[(2R,4S)-2-(1-cyclopropylpyrazol-4-yl)tetrahydropyran-4-yl]-6-(difluoromethyl)-4-(2,4-difluorophenyl)-7-methyl-pteridine]
< 50 | – | Cc1nc2nc(N3CCOC(c4cc[nH]c(=O)c4)C3)nc(-c3ccc(C(F)(F)F)nc3)c2nc1C (stereo not shown) [Example 194, 4-(4-(6,7-dimethyl-4-(6-(trifluoromethyl)pyridin-3-yl)pteridin-2-yl)morpholin-2-yl)pyridin-2(1H)-one]
< 50 | – | Cc1cnc2c(-c3ccc(Cl)cc3F)nc(N3C[C@@H](C)O[C@@H](c4cnn(C5CC5)c4)C3)nc2n1 [Example 117, (2S,6R)-4-(4-(4-chloro-2-fluorophenyl)-7-methylpteridin-2-yl)-2-(1-cyclopropyl-1H-pyrazol-4-yl)-6-methylmorpholine]
500 to 3000 | – | COc1ncccc1[C@@H]1C[C@H](c2nc(C34CC(C(F)(F)F)(C3)C4)c3nc(C)c(C)nc3n2)CCO1 [Example 143, 2-((2S,4R)-2-(2-methoxypyridin-3-yl)tetrahydro-2H-pyran-4-yl)-6,7-dimethyl-4-(3-(trifluoromethyl)bicyclo[1.1.1]pentan-1-yl)pteridine]
– | < 50 | COc1nc2c(-c3ccc(F)cc3F)nc([C@@H]3CCO[C@H](c4cnn(C5CC5)c4)C3)nc2nc1C (racemic) [Example I-1653, 4-(2,4-difluorophenyl)-6-methoxy-7-methyl-2-[rac-(2R,4S)-2-(1-cyclopropylpyrazol-4-yl)tetrahydropyran-4-yl]pteridine]
500 to 3000 | – | Cc1nc2nc([C@@H]3CCO[C@H](c4cccn(C)c4=O)C3)nc(-c3ccc(F)cc3F)c2nc1C [Example 204]
– | 500 to 3000 | Cc1nc2nc([C@H]3CC(CO)O[C@@H](c4cnn(C5CC5)c4)C3)nc(-c3ccc(F)cc3F)c2nc1C (stereo in doubt) [Example I-1624, [(2S,4R,6R)-6-(1-cyclopropylpyrazol-4-yl)-4-[4-(2,4-difluorophenyl)-6,7-dimethyl-pteridin-2-yl]tetrahydropyran-2-yl]methanol]
< 50 | – | Cc1nc2nc(-c3ccc(Cl)cc3F)cc(C3CCO[C@@H](c4cnn(C5CC5)c4)C3)c2nc1C (stereo partly drawn) [Example 235, 6-(4-chloro-2-fluorophenyl)-8-((2R)-2-(1-cyclopropyl-1H-pyrazol-4-yl)tetrahydro-2H-pyran-4-yl)-2,3-dimethylpyrido[2,3-b]pyrazine]
– | 500 to 3000 | Cc1nc2nc([C@@H]3CCO[C@@H](c4cnc(C5CC5)o4)C3)nc(-c3ccc(F)cc3F)c2nc1C (single isomer, unassigned) [Example I-1696]
– | < 50 | Cc1nc2nc([C@H]3CCO[C@@H](c4cnn(C5CC5)c4)C3)nc(-c3c(F)cc(C(F)(F)F)cc3F)c2nc1C (stereo in doubt) [Example I-1391, 4-[2,6-difluoro-4-(trifluoromethyl)phenyl]-6,7-dimethyl-2-[(2R,4S)-2-(1-cyclopropylpyrazol-4-yl)tetrahydropyran-4-yl]pteridine]
< 50 | – | Cc1nc2nc([C@H]3C[C@@H](C)O[C@@H](c4cnn(C5CC5)c4)C3)nc(-c3ccc(C(F)(F)F)cc3)c2nc1C [Example 159, 2-((2R,4S,6R)-2-(1-cyclopropyl-1H-pyrazol-4-yl)-6-methyltetrahydro-2H-pyran-4-yl)-6,7-dimethyl-4-(4-(trifluoromethyl)phenyl) pteridine]
– | < 50 | CCCc1nc2nc(N3C[C@@H](C)O[C@@H](c4cnn(C5CC5)c4)C3)nc(-c3ccc(F)cc3F)c2nc1C (single isomer, unassigned) [Example I-1288]
< 50 | – | Cc1nc2nc([C@H]3CCO[C@@H](c4cnn(C5CCC5)c4)C3)nc(-c3ccc(F)cc3F)c2nc1C [Example 148, 2-((2R,4S)-2-(1-cyclobutyl-1H-pyrazol-4-yl)tetrahydro-2H-pyran-4-yl)-4-(2,4-difluorophenyl)-6,7-dimethylpteridine]
– | < 50 | Cc1nc2nc([C@H]3CCO[C@@H](c4cnn(C5CC5)c4)C3)nc(-c3ccc(C(F)(F)F)c(F)c3F)c2nc1C (stereo in doubt) [Example I-1588, 4-[2,3-difluoro-4-(trifluoromethyl)phenyl]-6,7-dimethyl-2-[(2R,4S)-2-(1-cyclopropylpyrazol-4-yl)tetrahydropyran-4-yl]pteridine]
< 50 | – | Cc1nc2nc(N3CCO[C@@H](c4cc[nH]c(=O)c4)C3)nc(C34CC(C(F)(F)F)(C3)C4)c2nc1C [Example 198, (S)-4-(4-(6,7-dimethyl-4-(3-(trifluoromethyl)bicyclo[1.1.1]pentan-1-yl)pteridin-2-yl)morpholin-2-yl)pyridin-2(1H)-one]

EC50 [1] [nM] | EC50 [2] [nM] | Compound
– | < 50 | Cc1nc2nc([C@H]3CCO[C@@H](c4cnn(C5CC5)c4)C3)nc(-c3ccc(C(F)F)cc3F)c2nc1C [Example I-1216, 2-[(2R,4S)-2-(1-cyclopropylpyrazol-4-yl)tetrahydropyran-4-yl]-4-[4-(difluoromethyl)-2-fluoro-phenyl]-6,7-dimethyl-pteridine]
50 to 500 | – | COc1ncccc1[C@H]1C[C@@H](c2nc(-c3ccc(F)cc3F)c3nc(C)c(C)nc3n2)CCO1 [Example 161, 4-(2,4-difluorophenyl)-2-((2R,4S)-2-(2-methoxypyridin-3-yl)tetrahydro-2H-pyran-4-yl)-6,7-dimethylpteridine]
– | < 50 | Cc1nc2cc([C@H]3CCO[C@@H](c4cnn(C5CC5)c4)C3)nc(-c3ccc(F)cc3F)c2nc1CF [Example I-1456, 7-((2R,4S)-2-(1-cyclopropyl-1H-pyrazol-4-yl)tetrahydro-2H-pyran-4-yl)-5-(2,4-difluorophenyl)-3-(fluoromethyl)-2-methylpyrido[3,4-b]pyrazine]
– | 50 to 500 | Cc1nc2nc(N3CCOC(c4cnn5c4CCC5)C3)nc(-c3ccc(F)cc3F)c2nc1C (stereo in doubt) [Example I-1532, (2S)-4-[4-(2,4-difluorophenyl)-6,7-dimethyl-pteridin-2-yl]-2-(5,6-dihydro-4H-pyrrolo[1,2-b]pyrazol-3-yl)morpholine]
50 to 500 | – | COc1ccc(-c2nc([C@H]3CCO[C@@H](c4cnn(C5CC5)c4)C3)nc3nc(C)c(C)nc23)cn1 [Example 239, 2-((2R,4S)-2-(1-cyclopropyl-1H-pyrazol-4-yl)tetrahydro-2H-pyran-4-yl)-4-(6-methoxypyridin-3-yl)-6,7-dimethylpteridine]
50 to 500 | – | Cc1nc2nc(C3CCOC(c4cn[nH]c4)C3)nc(-c3ccc(F)cc3F)c2nc1C (stereo not shown) [Example 167, 2-(2-(1H-pyrazol-4-yl)tetrahydro-2H-pyran-4-yl)-4-(2,4-difluorophenyl)-6,7-dimethylpteridine]
< 50 | – | Cc1cnc2c(-c3ccc(Cl)cc3F)nc([C@H]3C[C@@H](c4cnn(C5CC5)c4)O[C@@H](C)C3)nc2n1 [Example 128, 4-(4-chloro-2-fluorophenyl)-2-((2S,4R,6S)-2-(1-cyclopropyl-1H-pyrazol-4-yl)-6-methyltetrahydro-2H-pyran-4-yl)-7-methylpteridine]
– | 50 to 500 | Cc1nc2c(-c3ccc(Cl)cc3F)nc([C@H]3CCO[C@@H](c4cnn(C5CC5)c4)C3)nc2nc1CC(F)F [Example I-1477, 4-(4-chloro-2-fluoro-phenyl)-2-[(2R,4S)-2-(1-cyclopropylpyrazol-4-yl)tetrahydropyran-4-yl]-7-(2,2-difluoroethyl)-6-methyl-pteridine]
– | < 50 | Cc1nc2nc(N3C[C@@H](C)O[C@@H](c4cnn(C)c4)C3)nc(-c3ccc(F)cc3F)c2nc1C [Example I-1633]
– | < 50 | Cc1cc([C@@H]2CN(c3nc(-c4ccc(Cl)cc4F)c4nc(C)c(C)nc4n3)CCO2)on1 (stereo in doubt) [Example I-1241, 4-[4-(4-chloro-2-fluoro-phenyl)-6,7-dimethyl-pteridin-2-yl]-2-(3-methylisoxazol-5-yl)morpholine]
50 to 500 | – | Cc1cnc2c(-c3ccc(F)cc3F)nc(N3C[C@@H](C)O[C@@H](c4cnn(C5CC5)c4)C3)cc2n1 [Example 209, (2S,6R)-2-(1-cyclopropyl-1H-pyrazol-4-yl)-4-(5-(2,4-difluorophenyl)-2-methylpyrido[3,4-b]pyrazin-7-yl)-6-methylmorpholine]
< 50 | – | Cc1nc2nc([C@@H]3CCO[C@H](c4cnn(C5CC(F)C5)c4)C3)nc(C34CC(C(F)(F)F)(C3)C4)c2nc1C (stereo in doubt) [Example 134, 2-((2S,4R)-2-(1-(3-fluorocyclobutyl)-1H-pyrazol-4-yl)tetrahydro-2H-pyran-4-yl)-6,7-dimethyl-4-(3-(trifluoromethyl)bicyclo[1.1.1]pentan-1-yl)pteridine]
– | < 50 | Cc1nc2nc(N3C[C@@H](C)O[C@@H](c4cnn(C5CC5)c4)C3)nc(-c3cc(C(F)F)c(F)cc3F)c2nc1C (stereo in doubt) [Example I-1706, (2S,6R)-2-(1-cyclopropylpyrazol-4-yl)-4-[4-[5-(difluoromethyl)-2,4-difluoro-phenyl]-6,7-dimethyl-pteridin-2-yl]-6-methyl-morpholine]
– | < 50 | Cc1nc2nc(N3C[C@@H](c4cnn(C5CC5)c4)O[C@@H](C(F)F)C3)nc(-c3ccc(C(F)(F)F)cc3F)c2nc1C [Example I-1638, (2R,6R)-2-(1-cyclopropylpyrazol-4-yl)-6-(difluoromethyl)-4-[4-[2-fluoro-4-(trifluoromethyl)phenyl]-6,7-dimethyl-pteridin-2-yl]morpholine]
– | < 50 | Cc1cc2c(C3CCC(C(F)F)CC3)nc(N3C[C@@H](C)O[C@@H](c4cnn(C5CC5)c4)C3)nc2nc1C (stereo partly drawn) [Example I-1328, (2S,6R)-2-(1-cyclopropylpyrazol-4-yl)-4-[4-[4-(difluoromethyl)cyclohexyl]-6,7-dimethyl-pyrido[2,3-d]pyrimidin-2-yl]-6-methyl-morpholine]
